Data as given in patent publication US12234463B2, “Engineered microorganisms with G3P → 3PG enzyme and/or fructose-1,6-bisphosphatase including those having synthetic or enhanced methylotrophy” (Genomatica, Inc., priority 2018, dated 2025).
Like-named read-outs stand apart in the source and are kept apart here.

Experiments:
[1] = tested on: E. coli transketolase A (TktA); settings: ref. [3], cited from earlier work
[2] = tested on: dihydroxyacetone synthase from Mycobacter sp. strain JC1 DSM 3803; settings: cited from earlier work
[3] = tested on: E. coli fructose-6-phosphate aldolase (F6P aldolase, fsa) variant A129S; settings: cited from earlier work
[4] = tested on: E. coli fructose-6-phosphate aldolase (F6P aldolase, fsa), wild type; settings: cited from earlier work; for Km: purified enzyme
[5] = tested on: B. methanolicus transketolase; settings: ref. [2] Markert et al., cited from earlier work
[6] = molecular target: T1, Bacillus methanolicus PB1 GapN (NADP-dependent glyceraldehyde-3-phosphate dehydrogenase), cds 10662A (Bacillus methanolicus, UniProt I3E1I1); experiment: GapN vs. GapA kinetic comparison: catalytic constants of BM PB1 GapN (cds 10662A, Table 18); type: biochemical; settings: fixed NADP; G3P varied
T1 sequence (I3E1I1 1-481): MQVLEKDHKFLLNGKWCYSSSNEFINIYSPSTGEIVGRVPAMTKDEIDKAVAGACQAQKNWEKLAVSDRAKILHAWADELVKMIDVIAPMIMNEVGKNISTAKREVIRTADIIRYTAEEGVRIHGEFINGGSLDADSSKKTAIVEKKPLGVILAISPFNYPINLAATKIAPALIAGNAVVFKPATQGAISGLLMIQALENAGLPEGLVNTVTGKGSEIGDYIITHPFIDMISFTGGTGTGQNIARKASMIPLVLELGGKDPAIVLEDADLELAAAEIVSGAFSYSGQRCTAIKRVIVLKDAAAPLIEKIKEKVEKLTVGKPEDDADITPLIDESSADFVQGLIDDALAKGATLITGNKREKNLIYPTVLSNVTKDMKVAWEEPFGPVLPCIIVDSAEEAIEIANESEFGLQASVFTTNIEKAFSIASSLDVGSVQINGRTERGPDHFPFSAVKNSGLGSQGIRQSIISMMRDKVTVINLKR

[7] = molecular target: T2, Bacillus methanolicus MGA3 GapN (NADP-dependent glyceraldehyde-3-phosphate dehydrogenase), cds 10663A (Bacillus methanolicus, UniProt I3EBG2); experiment: GapN vs. GapA kinetic comparison: catalytic constants of BM MGA3 GapN (cds 10663A, Table 18); type: biochemical; settings: fixed NADP; G3P varied
T2 sequence (I3EBG2 1-481): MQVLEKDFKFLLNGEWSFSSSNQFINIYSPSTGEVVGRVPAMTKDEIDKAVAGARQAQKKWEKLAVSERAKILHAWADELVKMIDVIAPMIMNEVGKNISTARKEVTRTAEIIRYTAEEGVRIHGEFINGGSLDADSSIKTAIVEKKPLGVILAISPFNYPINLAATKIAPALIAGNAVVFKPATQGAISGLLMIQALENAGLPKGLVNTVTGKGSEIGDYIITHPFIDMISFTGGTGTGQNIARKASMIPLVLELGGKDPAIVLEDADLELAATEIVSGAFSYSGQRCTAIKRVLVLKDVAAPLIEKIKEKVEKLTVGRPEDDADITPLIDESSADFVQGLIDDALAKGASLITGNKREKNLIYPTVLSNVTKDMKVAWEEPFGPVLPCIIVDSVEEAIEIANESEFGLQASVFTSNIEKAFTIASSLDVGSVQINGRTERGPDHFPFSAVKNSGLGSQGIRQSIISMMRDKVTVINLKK

[8] = tested on: E. coli ribose 5-phosphate isomerase A (RpiA); settings: read-out: Michaelis constant for ribose 5-phosphate; cited from earlier work
[9] = tested on: E. coli ribose 5-phosphate isomerase B (RpiB); settings: read-out: Michaelis constant for ribose 5-phosphate; cited from earlier work
[10] = reaction substrates, read-out: KM (substrates)
[11] = fold reduction compared to wild type enzyme
[12] = reaction products, read-out: KM (products)

## O=C(CO)[C@@H](O)[C@H](O)[C@H](O)[C@H](O)COP(=O)(O)O [sedoheptulose 7-phosphate]
[1]; [10]
  Km: 4000 µM

## C=O [formaldehyde]
[2]; read-out: Km for formaldehyde
  Km: 1860 µM

## O=CCO [glycoaldehyde]
[3]; [11]
  reduced affinity for glycoaldehyde: more than 3 fold

## O=C(CO)CO [dihydroxyacetone]
[3]; fold improvement
  improved reactivity towards DHA in terms of Kcat/Km: over 17 fold
[4]
  Km: 35000 µM

## O=C[C@H](O)[C@H](O)COP(=O)(O)O
[1]; [12]
  Km: 90 µM

## O=C[C@H](O)COP(=O)(O)O [glyceraldehyde 3-phosphate]
[5]; [10]
  Km: 920 µM
[6]
  Km: 1100 ± 300 µM
  kcat (G3P): 8.9 ± 0.8 S^−1
[1]; [10]
  Km: 2100 µM
[7]
  Km: 1600 ± 100 µM
  kcat (G3P): 9.5 ± 0.8 S^−1
[4]
  Km: 800 µM

## CC(=O)CO [hydroxyacetone]
[3]; [11]
  reduced catalytic efficiency on hydroxyacetone: more than 3 fold

## O=C(CO)[C@@H](O)[C@H](O)COP(=O)(O)O [xylulose 5-phosphate]
[5]; [12]
  Km: 150 µM
[1]; [12]
  Km: 160 µM
[2]; read-out: Km for xylulose 5-phosphate
  Km: 33.3 µM

## O=P(O)(O)OC[C@H]1OC(O)[C@H](O)[C@@H]1O (stereo partly shown) [ribose 5-phosphate]
[5]; [12]
  Km: 120 µM
[1]; [12]
  Km: 1400 µM
[8]
  Km: 4400 µM
[9]
  Km: 830 µM

## O=P(O)(O)OC[C@H]1OC(O)(CO)[C@@H](O)[C@@H]1O (stereo partly shown) [fructose 6-phosphate]
[5]; [10]
  Km: 720 µM
[1]; [10]
  Km: 1100 µM
[4]; 30 degrees C., pH 8.5, 50 mm glycylglycine buffer
  Vmax for fructose 6-phosphate cleavage: 7 units/mg of protein
[4]
  Km: 9000 µM
